# Experimental data as given in patent US20230149419A1, “COMPOSITION FOR PREVENTING OR TREATING NEUROINFLAMMATORY DISEASES, COMPRISING CHLORPROMAZINE” (GliaCellTech Inc., priority 2020, published 2023).
# Key:
# [1] = test system: primary microglia from wild-type mice; test: LPS-induced inflammatory cytokine secretion in primary microglia (ELISA), wild-type; assay type: cell-based, mouse
# Method: (§1) Primary microglia were obtained from wild-type mice and Psen2^N141I/+ mice with Alzheimer's disease. Specifically, brains were excised from neonatal mice 1 to 3 days old and cells were obtained therefrom. The cells were cultured in Dulbecco's modified Eagle's medium (DMEM, Corning) supplemented with 10% heat-inactivated fetal bovine serum (HI-FBS, Hyclone) and 1% penicillin-streptomycin (Hyclone). Primary microglia were isolated in vitro by tapping after 12 days of culturing. Purity of primary microglia was estimated by immunostaining with an antibody against Iba-1, which is a microglial marker.
# (§2) In this regard, the primary microglia were preincubated with or without 0.5 μM chlorpromazine for 30 min before LPS treatment. Anti-inflammatory effects were compared and analyzed between the test groups.
# [2] = test system: primary microglia from Psen2^N141I/+ mice with Alzheimer's disease; test: LPS-induced inflammatory cytokine secretion in primary microglia (ELISA), Psen2 mutation; assay type: cell-based, mouse
# Method: as §1, §2
# [3] = test system: primary microglia from wild-type mice; test: IL-1β secretion after LPS and inflammasome activation (nigericin/ATP), wild-type microglia; assay type: cell-based, mouse; conditions: chlorpromazine 0.5 μM 30 min, LPS 1 μg/mL 3 h
# Method: as §1
# IL-1β is a cytokine released from an activated inflammasome complex in microglia. For secretion of the cytokine, additional treatment with a drug for inducing activation of the inflammasome complex is necessary following LPS-induced inflammation. […] Application of the test groups thus obtained could divide groups 5 to 8 of Example 5-2 into 10 subgroups according to treatment with nigericin and ATP.
# [4] = test system: primary microglia from wild-type (WT) mice; test: fAβ42-induced cytokine secretion in primary microglia (ELISA), wild-type; assay type: cell-based, mouse; conditions: 4 μM fAβ42, 0.5 μM chlorpromazine (Group 24)
# Method: as §1
# Specifically, FITC-conjugated amyloid beta 1-42 was prepared according to the follow reference (Cho, M.-H. et al. “Autophagy in microglia degrades extracellular β-amyloid fibrils and regulates the NLRP3 inflammasome.” Autophagy 10, 1761-1775 (2014)).
# The primary cultures of microglia prepared in Example 5-1 from the Psen2 mutation (KI/+) mouse model of Alzheimer's disease and the wild-type (WT) mice were directly treated with 4 μM of the fibrilized amyloid beta 1-42 (fAβ42), followed by incubation with or without 0.5 μM chlorpromazine.
# [5] = test system: Nr1d1 mRNA in primary microglia from wild-type mice; test: Nr1d1 mRNA expression in primary microglia (qRT-PCR), wild-type; assay type: cell-based, mouse
# Method: (§3) Effects were analyzed in the experimental group not treated with chlorpromazine on the obtained microglia and the experimental group treated with chlorpromazine at a dose of 0.5 μM.
# [6] = test system: Nr1d1 mRNA in primary microglia from Psen2 mouse model of Alzheimer's disease; test: Nr1d1 mRNA expression in primary microglia (qRT-PCR), Psen2 mutation; assay type: cell-based
# Method: as §3
# [7] = test system: REV-ERBα protein in primary microglia from Psen2 mouse model of Alzheimer's disease; test: REV-ERBα protein expression in primary microglia (western blotting), Psen2 mutation; assay type: cell-based
# Method: Effects were analyzed in the experimental group not treated with chlorpromazine on the obtained microglia and the experimental group treated with chlorpromazine at a dose of 0.5 μM. For analysis of REV-ERBα protein expression levels, western blotting was carried out. Specifically, primary microglia were lysed in a 1% Triton X-100 lysis buffer (1% Triton X-100, 250 mM sucrose, 1 mM EDTA, 1 mM phenylmethylsulfonyl fluoride, and 50 mM NaCl in 20 mM Tris-HCl, pH 7.4) with 1×protease and phosphatase inhibitors (Thermo Fisher Scientific) and 0.1 M dithiothreitol (Sigma-Aldrich). The cell lysates were separated by sodium dodecyl sulfate-polyacrylamide gel electrophoresis and transferred to polyvinylidene fluoride membranes. The membranes were incubated with the appropriate primary antibodies, and bound antibodies were detected by species-specific, horseradish peroxidase-conjugated secondary antibodies. Chemiluminescence detection was performed to analyze the protein bands of interest.
# [8] = test system: elderly with schizophrenia; conditions: taken for a long time at the current market dose; cited from earlier work
# wild-type mice = test: Serum cytokine levels after low-concentration LPS injection, wild-type mice
# Method: To investigate neuroinflammation at various concentrations of LPS, blood was extracted from cheek veins in the wild-type mice in group 2 and the mouse model of Alzheimer's disease in group 4 20 hours after the injection of LPS. The sera obtained by centrifugation were quantitatively analyzed for IL-6, TNFα, CCL2, CXCL1, and CCL5 by using ELISA kit (R&D Systems) according to the manufacturer's instruction. In addition, the same procedure was conducted for the wild-type mice without LPS injection of group 1 and the Psen2^N141I mutation mouse model of Alzheimer's disease of group 3 to obtain sera which were then analyzed for the proteins by using the ELISA kit according to the manufacturer's instruction.
# The wild-type mice and the Psen2 mutation mouse model of Alzheimer's disease obtained in Example 1 were intraperitoneally injected with chlorpromazine (0.25 mg/body weight kg) at 14:00 and then with such a low concentration of LPS (0.35 μg/kg) as to be ineffective for inflammation in wild-type mice at 18:00 (Zeitgeber time light-on at 11:00 and 07:00). After 20 hours, the mice were monitored for inflammatory responses and memory behavior. The concentration of chlorpromazine (0.25 mg/body weight kg) used in this assay is tens- to hundreds-fold lower than those conventionally used as an antipsychotic (25 mg/injection, 3 times/day).
# After the experiment conducted as in the scheme of FIG. 11A, the wild-type and the Psen2^N141I/+ Alzheimer's disease mice, both intraperitoneally injected with LPS, were analyzed for inflammatory response according to chlorpromazine treatment as measured for serum levels of the circadian clock-controlled cytokines (IL-6, CXCL1, CCL2, and CCL5) by ELISA as in Example 2.
# [9] = WT microglia, LPS 1 μg/mL 12 h, preincubated 0.5 μM chlorpromazine 30 min (Group 6)
# [10] = KI/+ microglia, LPS 1 μg/mL 12 h, preincubated 0.5 μM chlorpromazine 30 min (Group 8)
# [11] = KI/+ microglia, no LPS, 0.5 μM chlorpromazine (Group 30), mean±SEM
# [12] = Psen2 mutation microglia, group 30, chlorpromazine 0.5 μM
# [13] = chlorpromazine 0.25 mg/kg i.p., LPS 0.35 μg/kg i.p., 20 h after LPS (Group 38)
smiles,measurement,setting,value
"CN(C)CCCN1c2ccccc2Sc2ccc(Cl)cc21 [CPZ, 3-(2-chloro-10H-phenothiazin-10-yl)-N,N-dimethyl-propan-1-amine]",Inflammatory cytokine secreted CCL2,[1]; [9],948.716 pg/mL
same,Inflammatory cytokine secreted CCL5,[1]; [9],948.716 pg/mL
same,Inflammatory cytokine secreted CXCL1,[1]; [9],937.727 pg/mL
same,Inflammatory cytokine secreted TNF-α,[1]; [9],1414.237 pg/mL
same,Inflammatory cytokine secreted IL-6,"[1]; WT microglia, LPS 1 μg/mL 12 h, preincubated 0.5 μM chlorpromazine 30 min (Group 6), mean",2228.546 pg/mL
same,protein levels of circadian clock-controlled cytokines (in words),"[1]; wild-type microglia, groups 5 and 6, chlorpromazine 0.5 μM, LPS",not affected
same,Inflammatory cytokine secreted CCL2,[2]; [10],734.064 pg/mL
same,Inflammatory cytokine secreted CCL5,[2]; [10],804.394 pg/mL
same,Inflammatory cytokine secreted CXCL1,[2]; [10],924.907 pg/mL
same,Inflammatory cytokine secreted IL-6,[2]; [10],2724.458 pg/mL
same,Inflammatory cytokine secreted TNF-α,[2]; [10],1532.733 pg/mL
same,"production of IL-6, CXCL1, CCL2, and CCL5 (in words)","[2]; Psen2 mutation microglia, groups 7 vs 8, chlorpromazine 0.5 μM, LPS",decrease the production
same,production of TNF-α (in words),"[2]; across all the groups (WT and KI/+ microglia), chlorpromazine 0.5 μM, LPS",no impacts
same,IL-1β secreted,"[3]; wild-type microglia (Group 15), Nig(+)/ATP(−), nigericin 10 μM 40 min",857.639 pg/mL
same,IL-1β secreted,"[3]; wild-type microglia (Group 17), Nig(−)/ATP(+), ATP 5 mM 40 min",1251.571 pg/mL
same,Secreted inflammatory cytokine CCL2,[4],1062.537 pg/mL
same,Secreted inflammatory cytokine CCL5,[4],1204.562 pg/mL
same,Secreted inflammatory cytokine CXCL1,[4],1237.646 pg/mL
same,Secreted inflammatory cytokine IL-6,[4],1164.200 pg/mL
same,Secreted inflammatory cytokine TNF-α,[4],1218.952 pg/mL
same,Nr1d1 mRNA expression,"[5]; WT microglia, no LPS, 0.5 μM chlorpromazine (Group 28), mean±SEM",0.860 ± 0.040 fold
same,Nr1d1 mRNA expression level (in words),"[5]; wild-type microglia, chlorpromazine 0.5 μM",ineffective
same,Nr1d1 mRNA expression,[6]; [11],0.976 ± 0.094 fold
same,Nr1d1 mRNA expression level (in words),[6]; [12],restored to the level in the wild-type group
same,REV-ERBα protein expression,[7]; [11],0.882 ± 0.032 fold
same,REV-ERBα protein expression level (in words),[7]; [12],restored to the level in the wild-type group
same,side effect on mortality,[8],increasing the mortality rate
same,Inflammatory cytokine secreted IL-6 (serum),"wild-type mice; chlorpromazine 0.25 mg/kg i.p. 4 h before LPS 0.35 μg/kg i.p., 20 h after LPS (Group 38)",68.214 pg/mL
same,Inflammatory cytokine secreted CCL2 (serum),wild-type mice; [13],117.032 pg/mL
same,Inflammatory cytokine secreted CCL5 (serum),wild-type mice; [13],80.808 pg/mL
same,Inflammatory cytokine secreted CXCL1 (serum),wild-type mice; [13],172.313 pg/mL
same,Inflammatory cytokine secreted TNF-α (serum),wild-type mice; [13],62.634 pg/mL
same,production of the circadian clock-controlled cytokines in serum (in words),"wild-type mice; groups 37 and 38, LPS 0.35 μg/kg",did not affect
